Structures can show the parent of a compound that is named as a salt.

Usually IC50 stands for the midpoint of a concentration-inhibition curve.

The target of the assay is T1, human recombinant ENPP1 (Homo sapiens, UniProt P22413).
T1 construct: purchased R&D Systems
T1 sequence (P22413 1-925): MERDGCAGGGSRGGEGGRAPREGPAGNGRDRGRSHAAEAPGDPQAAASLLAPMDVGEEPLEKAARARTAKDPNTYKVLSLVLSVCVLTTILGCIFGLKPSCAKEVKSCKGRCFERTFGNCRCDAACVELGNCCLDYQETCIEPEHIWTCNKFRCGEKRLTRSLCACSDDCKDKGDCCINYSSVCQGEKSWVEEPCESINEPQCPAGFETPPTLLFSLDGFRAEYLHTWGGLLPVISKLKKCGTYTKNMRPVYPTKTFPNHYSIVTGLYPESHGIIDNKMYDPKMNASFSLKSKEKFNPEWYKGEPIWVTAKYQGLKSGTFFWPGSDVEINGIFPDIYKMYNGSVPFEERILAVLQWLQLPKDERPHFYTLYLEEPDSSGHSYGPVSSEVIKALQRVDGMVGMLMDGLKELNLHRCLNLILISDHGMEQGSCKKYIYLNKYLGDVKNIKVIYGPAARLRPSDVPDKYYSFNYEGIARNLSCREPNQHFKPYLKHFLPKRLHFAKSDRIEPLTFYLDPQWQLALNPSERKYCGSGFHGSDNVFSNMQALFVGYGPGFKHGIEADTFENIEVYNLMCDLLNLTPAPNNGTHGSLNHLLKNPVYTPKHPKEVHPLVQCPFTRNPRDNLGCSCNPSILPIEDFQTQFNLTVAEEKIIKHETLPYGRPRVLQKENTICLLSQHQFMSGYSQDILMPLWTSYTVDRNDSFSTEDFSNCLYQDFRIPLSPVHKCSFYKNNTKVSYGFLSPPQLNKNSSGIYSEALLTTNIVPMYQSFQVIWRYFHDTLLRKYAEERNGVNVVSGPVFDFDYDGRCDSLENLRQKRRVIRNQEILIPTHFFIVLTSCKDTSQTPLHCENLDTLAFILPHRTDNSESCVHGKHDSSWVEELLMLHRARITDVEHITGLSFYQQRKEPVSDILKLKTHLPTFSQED
As to the kind of experiment: ENPP1 enzyme assay with cGAMP substrate (AMP-Glo). In kind it is biochemical. As to conditions: human recombinant ENPP1 3 ng per reaction, cGAMP 5 μM, 37° C., 90 minutes, AMP-Glo luminescence. Here is the method: ENPP1 hydrolyzes nucleotides or nucleotide derivatives to yield nucleoside-5′-monophosphate and pyrophosphate. In addition, ENPP1 hydrolyzes 2′,3′-cGAMP to yield 5′-adenosine monophosphate (AMP) and 5′-guanosine monophosphate (GMP). AMP obtained through the above reaction was measured using an AMP-Glo® kit (Promega). The AMP-Glo® kit includes two reagents. The first reagent terminates the AMP-producing enzyme reaction, removes ATP, and converts the produced AMP into ADP. The second reagent converts ADP into ATP, the ATP being used to generate luminescence in the luciferase reaction. The amount of luminescence measured as described above is proportional to the amount of AMP produced by ENPP1.
The final reaction mixture for an assay system contains 50 mM Tris (pH 8.5) buffer, 250 mM NaCl, 0.5 mM CaCl2, 1 μM ZnCl2, 5% glycerol, and 1% DMSO. […] The reaction was initiated by addition of cGAMP (at a final concentration of 5 μM) and carried out at 37° C. for 90 minutes. At the end of the reaction, 10 μl of AMP-Glo first reagent was added to stop the reaction, and then the reaction mixture was stored at room temperature for 1 hour. After storage, the mixture was added with 20 μl of an AMP detection solution (a mixture of AMP-Glo II reagent and Kinase-Glo at a ratio of 1:100) and stored at room temperature for 1 hour. Luminescence signals were measured using a Victor® plate reader (Perkin Elmer). The maximal activity control (containing an enzyme and a substrate in the presence of 1% DMSO; MAX) and the minimal activity control (containing a substrate and 1% DMSO; MIN) were evaluated simultaneously. In each experiment, serially diluted reference ENPP1 inhibitors were tested together. IC50 values for % residual activity versus compound concentration were determined by fitting inhibition curves using a 3-parameter variable slope in GraphPad Prism® software.

As to `Cc1c[nH]c2ncnc(N3CCC(CN)CC3)c12` [Example 63, (1-(5-methyl-7H-pyrrolo[2,3-d]pyrimidin-4-yl)piperidin-4-yl)methenamine hydrochloride], the IC50 is more than 10 µM.
`NS(=O)(=O)NCc1cccc(-c2ncnc3[nH]ccc23)c1` [Example 34, N-(3-(7H-pyrrolo[2,3-d]pyrimidin-4-yl)benzyl)sulfamide hydrochloride]: the IC50 was in the range of 1 to 10 µM.
As for `CC(NS(N)(=O)=O)c1ccc(-c2ncnc3[nH]ccc23)cc1` (stereo not shown) [Example 27, N-(1-(4-(7H-pyrrolo[2,3-d]pyrimidin-4-yl)phenyl)ethyl)sulfamide hydrochloride], the concentration for half-maximal inhibition (IC50) was less than 1 µM.
As for `NS(=O)(=O)NCC1CCN(c2ncnc3c2ccn3-c2ccco2)CC1` [Example 83, N-((1-7-(furan-2-yl)-7H-pyrrolo[2,3-d]pyrimidin-4-yl)piperidin-4-yl)methyl)sulfamide hydrochloride], the half-inhibitory concentration (IC50) is less than 1 µM.
For `NS(=O)(=O)NCCC1CCN(c2ncnc3[nH]ccc23)CC1` [Example 54, N-(2-(1-(7H-pyrrolo[2,3-d]pyrimidin-4-yl)piperidin-4-yl)ethyl)sulfamide] the value was less than 1 µM; for `CC(C)(C)OC(=O)NS(=O)(=O)NCc1ccc(-c2ccnc3[nH]ccc23)cc1` [Example 17, tert-butyl (N-(4-(1H-pyrrolo[2,3-b]pyridin-4-yl)benzyl)sulfamoyl)carbamate], more than 10 µM.
For `NCC1CCN(c2ncnc3[nH]ccc23)CC1` [Example 65, (1-(7H-pyrrolo[2,3-d]pyrimidin-4-yl)piperidin-4-yl)methenamine hydrochloride], the IC50 was in the range of 1 to 10 µM.
Consider `CC(C)(NS(N)(=O)=O)c1ccc(-c2ncnc3[nH]ccc23)cc1` [Example 26, N-(2-(4-(7H-pyrrolo[2,3-d]pyrimidin-4-yl)phenyl)propan-2-yl)sulfamide hydrochloride], for which the IC50 was less than 1 µM.
With `c1nc(N2CCC3(CCNC3)CC2)c2cc[nH]c2n1` [Example 66, 8-(7H-pyrrolo[2,3-d]pyrimidin-4-yl)-2,8-diazaspiro[4.5]decane hydrochloride], the IC50 is more than 10 µM.
Regarding `NS(=O)(=O)NCC1CCN(c2ncnc3c2ccn3-c2ccccc2)CC1` [Example 45, N-((1-(7-phenyl-7H-pyrrolo[2,3-d]pyrimidin-4-yl)piperidin-4-yl)methyl)sulfamide], the half-maximal inhibitory concentration (IC50) was less than 1 µM.
`Cn1ccc2c(N3CCC(CNS(N)(=O)=O)CC3)ncnc21` [Example 44, N-((1 (7-methyl-7H-pyrrolo[2,3-d]pyrimidin-4-yl)piperidin-4-yl)methyl)sulfamide]: the IC50 is less than 1 µM.
As for `NS(=O)(=O)N1CCC2(CCN(c3ncnc4[nH]ccc34)CC2)C1` [Example 80, 8-(7H-pyrrolo[2,3-d]pyrimidin-4-yl)-2,8-diazaspiro[4.5]decane-2-sulfamide hydrochloride], the IC50 was less than 1 µM.
Turning to `NS(=O)(=O)NC1CCN(c2ncnc3[nH]ccc23)CC1` [Example 79, N-(1-(7H-pyrrolo[2,3-d]pyrimidin-4-yl)piperidin-4-yl)sulfamide hydrochloride], the IC50 was 1 to 10 µM.
The same measure for `NS(=O)(=O)NCC1CCN(c2ncnc3c2ccn3-c2cccnc2)CC1` [Example 84, N-((1-(7-(pyridin-3-yl)-7H-pyrrolo[2,3-d]pyrimidin-4-yl)piperidin-4-yl)methyl)sulfamide hydrochloride]: 1 to 10 µM; for `NCc1ccc(-c2ncnc3[nH]ccc23)cc1` [Example 11, (4-(7H-pyrrolo[2,3-d]pyrimidin-4-yl)phenyl)methenamine hydrochloride]: 1 to 10 µM; for `CC(NS(N)(=O)=O)C1CCN(c2ncnc3[nH]ccc23)CC1` (stereo not shown) [Example 82, N-(1-(1-(7H-pyrrolo[2,3-d]pyrimidin-4-yl)piperidin-4-yl)ethyl)sulfamide hydrochloride]: less than 1 µM.
In the case of `NS(=O)(=O)NCC1CCN(c2ncnc3c2ccn3C2CC2)CC1` [Example 46, N-((1-(7-cyclopropyl-7H-pyrrolo[2,3-d]pyrimidin-4-yl)piperidin-4-yl)methyl)sulfamide], the IC50 was less than 1 µM.
For `CSc1nc(N2CCC(CCNS(N)(=O)=O)CC2)c2cc[nH]c2n1` [Example 53, N-(2-(1-(2-(methylthio)-7H-pyrrolo[2,3-d]pyrimidin-4-yl)piperidin-4-yl)ethyl)sulfamide] the value was more than 10 µM; for `CC(C)(N)c1ccc(-c2ncnc3c2ccn3-c2cccnc2)cc1` [Example 15, hydrochloride], more than 10 µM.
With `CC(C)n1ccc2c(N3CCC(CNS(N)(=O)=O)CC3)ncnc21` [Example 47, N-((1-(7-isopropyl-7H-pyrrolo[2,3-d]pyrimidin-4-yl)piperidin-4-yl)methyl)sulfamide], the concentration for half-maximal inhibition (IC50) was more than 10 µM.
For the compound `NS(=O)(=O)NCC1CCN(c2ncnc3[nH]ccc23)CC1` [Example 43, N-((1-(7H-pyrrolo[2,3-d]pyrimidin-4-yl)piperidin-4-yl)methyl)sulfamide], the IC50 is less than 1 µM.
For `NS(=O)(=O)NCc1ccc(-c2ncnc3[nH]ccc23)cc1` [Example 25, N-(4-(7H-pyrrolo[2,3-d]pyrimidin-4-yl)benzyl)sulfamide hydrochloride] the value was 1 to 10 µM; for `NCc1ccc(-c2ccnc3[nH]ccc23)cc1` [Example 10, (4-(1H-pyrrolo[2,3-b]pyridin-4-yl)phenyl)methenamine hydrochloride], more than 10 µM.
As for `NCC1CCN(c2ncnc3c2ccn3-c2ccco2)CC1` [Example 69, (1-(7-(furan-2-yl)-7H-pyrrolo[2,3-d]pyrimidin-4-yl)piperidin-4-yl)methenamine hydrochloride], the IC50 lay in the range of 1 to 10 µM.
For the compound `NS(=O)(=O)NCc1ccc(-c2ncnc3[nH]ccc23)cc1F` [Example 30, N-(2-fluoro-4-(7H-pyrrolo[2,3-d]pyrimidin-4-yl)benzyl)sulfamide hydrochloride], the IC50 fell in the range of 1 to 10 µM.
As to `Cc1cc2c(N3CCC(CNS(N)(=O)=O)CC3)ncnc2[nH]1` [Example 51, N-((1-(6-methyl-7H-pyrrolo[2,3-d]pyrimidin-4-yl)piperidin-4-yl)methyl)sulfamide], the IC50 was less than 1 µM.
`CC(C)(N)c1ccc(-c2ncnc3[nH]ccc23)cc1` [Example 12, 2-(4-(7H-pyrrolo[2,3-d]pyrimidin-4-yl)phenyl)propan-2-amine hydrochloride]: the 50% inhibitory concentration (IC50) was more than 10 µM.
Turning to `O=S(=O)(NCC1CCN(c2ncnc3[nH]ccc23)CC1)c1cccs1` [Example 88, N-((1-(7H-pyrrolo[2,3-d]pyrimidin-4-yl)piperidin-4-yl)methyl)thiophene-2-sulfonamide], the IC50 was 1 to 10 µM.
Turning to `NS(=O)(=O)NCc1ccc(-c2ccnc3[nH]ccc23)cc1` [Example 24, N-(4-(1H-pyrrolo[2,3-b]pyridin-4-yl)benzyl)sulfamide hydrochloride], the IC50 fell in the range of 1 to 10 µM.
On to `NS(=O)(=O)N1CCc2cc(-c3ncnc4[nH]ccc34)ccc2C1` [Example 42, 6-(7H-pyrrolo[2,3-d]pyrimidin-4-yl)-3,4-dihydroisoquinoline-2(1H)-sulfonamide hydrochloride], for which the concentration for half-maximal inhibition (IC50) was 1 to 10 µM.
`Cc1c[nH]c2ncnc(N3CCC(CNS(N)(=O)=O)CC3)c12` [Example 78, N-((1-(5-methyl-7H-pyrrolo[2,3-d]pyrimidin-4-yl)piperidin-4-yl)methyl)sulfamide hydrochloride]: the IC50 was less than 1 µM.

(Values after US12060352B2, “Substituted pyrrolo[2,3-d]pyrimidines having ectonucleotide pyrophosphatase-phosphodiesterase inhibitory activity” (KOREA INSTITUTE OF SCIENCE AND TECHNOLOGY, priority 2021, dated 2024).)
